According to patent US20150031760A1, “PHARMACEUTICAL COMPOSITION FOR PREVENTING OR TREATING NERVOUS SYSTEM DISORDERS COMPRISING SULFURETIN OR PHARMACEUTICALLY ACCEPTABLE SALT THEREOF” (Research and Business Foundation SUNGKYUNKWAN UNIVERSITY, priority 2010, published 2015):

Assays:
SH-SY5Y and PC12 cells = assay: MTT (cell viability) test, SNP-induced cell death; type: cell-based
mice = assay: Scopolamine-induced cognitive impairment, spontaneous alternation behavior Y-maze test; type: in vivo; settings: sulfuretin 1 mg/kg, p.o., one hour before test; scopolamine 0.5 mg/kg, i.p.
Method: Male ICR mice (4-weeks-old, 18-20 g) were purchased from Koatech Co., Ltd. (Pyongtaek, Korea). Mice were housed 10 per cage, allowed access to water and food ad libitum, and maintained in constant temperature (23±1° C.) and humidity (55±5%) conditions under a 12 hour light/dark cycle (lights on 07:00 to 19:00 h). All experiments were conducted in accord with the NIH Guide for the Care and Use of Laboratory Animals and with the approval of the Institutional Animal Care and Use Committee of Sungkyunkwan University.
The spontaneous alternation behavior was measured by Y-maze which consists of a horizontal maze (30 cm long and 5 cm wide, with walls 12 cm high) with three arms (labeled A, B, and C). The maze floor and walls are constructed of dark grey, polyvinyl plastic. Mice were initially placed within one arm, and the number of alternations (i.e., consecutive entry sequences of ABC, CAB, or BCA but not BAB) and the number of arm entries were manually recorded for each mouse over an 8 minutes period. One hour before each test, the mice were given sulfuretin (0.25, 0.5, or 1 mg/kg, p.o.). After 30 minutes, memory impairment was induced by administering scopolamine (0.5 mg/kg, i.p.). […] The percentage alternation was calculated according to the following equation: Percentage alternation=[(Number of alternations)/(Total arm entries−2)]×100. […]

caspase-3 = assay: Western blot, caspase-3 expression; type: cell-based, human; settings: SH-SY5Y cells
Method: (§1) The incubator was maintained at a temperature of 37° C., and a mixed gas of 95% air and 5% CO2 was continuously supplied thereto to provide suitable conditions for cell culture. The cells were cultured in a 6-well plate or a 96-well plate at each of densities of 1×10^6 and 2×10^4 cells/well 24 hours before the experiment. […] Sulfuretin was used in ethanol and used at a final concentration of 0.1% or less.
In order to identify the effect of sulfuretin on the expression of proteins related to dementia, Alzheimer's disease, Parkinson's disease and strokes, a Western blot test was carried out.
After 24 hours, the supernatant of each well was collected and centrifuged at 400 g for 3 minutes, and the cells were washed with cold PBS and lysed with 100 μl of T-PER lysis buffer (Thermo, USA) for 30 minutes. The lysates were centrifuged at 10000 g at 4° C. for 15 minutes, and the supernatants were stored at […] until use as test samples. Proteins were quantitatively analyzed using a BCA assay kit (Thermo, USA) and separated within 8.5-12% SDS gel and then transferred to PVDF membranes. To examine the expression of the proteins, the development of fluorescence was analyzed by enhanced chemiluminescence (ECL). Specifically, the membrane was blocked with 5% skimmed non-fat milk for 1 hour and labeled with the primary antibodies, PARP, caspase-3, phospho-p38, phospho-JNK and β-actin at 4° C. overnight. Then, the membrane was washed three times with Tris-tween buffered saline (TTBS), and then labeled with horseradish peroxidase (HRP)-conjugated anti-rabbit and anti-mouse secondary antibodies at room temperature for 1 hour. Then, the membrane was washed five times with TTBS for 10 minutes. The washed film was developed by ECL using x-ray films, and concentrations were quantitatively analyzed using quantitative analysis program (Fujifilm, Japan).

SH-SY5Y cells = assay: Inhibition of mitochondrial membrane potential (MMP) damage (rhodamine-123); type: cell-based, human; settings: hydrogen peroxide-induced damage, 30 minutes pretreatment
Method: as §1
In order to measure the inhibition of MMP damage, cells were labeled with rhodamine-123 fluorescence, and quantitative analysis was performed using a fluorescence meter. Specifically, the 6-well plate in which the cells have been cultured was pretreated with sulfuretin for 30 minutes and then reacted with hydrogen peroxide for 30 minutes to induce MMP damage. Then, 10 μl of 10 μM rhodamine-123 was added to each well of the plate and allowed to react for 30 minutes. Herein, rhodamine-123 in the incubator was covered with a silver foil such that it would not be exposed to light. The cells that reacted with the rhodamine-123 fluorescent substance were detached with cold PBS and centrifuged at 400 g for 3 minutes. The centrifugation process was repeated twice to wash the fluorescent substance. The washed cells were stirred briefly with 0.5 ml of PBS, and 100 μl was dispensed into each well of a fresh 96-well plate. The fluorescence of the cells was measured at an excitation wavelength of 480 nm and an emission wavelength of 530 nm using a fluorescence meter (Perkinelmer, USA).
The measured fluorescence was substituted into the following equation to calculate ΔΨm:
ΔΨm(%)=[(O.D. of control−O.D. of test group)/O.D. of control]×100

`O=C1/C(=C/c2ccc(O)c(O)c2)Oc2cc(O)ccc21` [sulfuretin] gave a viability at 0.1 µg/mL (SH-SY5Y and PC12 cells; sulfuretin 0.1 μg/ml) of at least 44%, a viability at 0.5 µg/mL (SH-SY5Y and PC12 cells; sulfuretin 0.5 μg/ml) of at least 56% and a viability at 1 µg/mL (SH-SY5Y and PC12 cells; sulfuretin 1 μg/ml) of at least 64%. The viability at 5 µg/mL (SH-SY5Y and PC12 cells; sulfuretin 5 μg/ml) was at least 163%, the “decrease of spontaneous alternation behavior induced by scopolamine” value (mice) was “significantly inhibited” and the caspase-3 expression (caspase-3; hydrogen peroxide + sulfuretin 0.1 μg/ml) was at least 24%. The caspase-3 expression (caspase-3; hydrogen peroxide + sulfuretin 0.5 μg/ml) was at least 51%, the caspase-3 expression (caspase-3; hydrogen peroxide + sulfuretin 1 μg/ml) was at least 127% and the “MMP (ΔΨm)” value (SH-SY5Y cells; sulfuretin 0.1 μg/ml) was at least 56%. The “MMP (ΔΨm)” value (SH-SY5Y cells; sulfuretin 0.5 μg/ml) was at least 62%, the “MMP (ΔΨm)” value (SH-SY5Y cells; sulfuretin 1 μg/ml) was at least 91% and the “MMP (ΔΨm)” value (SH-SY5Y cells; sulfuretin 5 μg/ml) was at least 98%.
